This is an account of results in US8853246B2 (Dow AgroSciences LLC, priority 2009, dated 2014).

Where two headings read alike, the source gives them in different places.

Assay [1] has as its system Sweetpotato Whitefly-Crawler (Bemisia Tabaci). As to the kind of experiment: Insecticidal test for sweetpotato whitefly-crawler in foliar spray assay (col. BEMITA). The conditions noted are these: for pest or weed control at 200 ppm: Bemisia tabaci, read-out: BEMITA 200 ppm (Corrected % Control, rating). Format: in vivo. Here is the method: (§1) The compounds were tested against cotton aphid, green peach aphid, and sweet potato whitefly using procedures described in the following examples and reported in Table 2.
(§2) In each case of Table 2, the rating scale is as follows at 200 ppm.
Insecticidal Test for Sweetpotato Whitefly-Crawler (Bemisia Tabaci) in Foliar Spray Assay
Cotton plants grown in 3-inch pots, with 1 small (3-5 cm) true leaf, were used as test substrate. The plants were placed in a room with whitefly adults. Adults were allowed to deposit eggs for 2-3 days. After a 2-3 day egg-laying period, plants were taken from the adult whitefly room. Adults were blown off leaves using a hand-held Devilbiss sprayer (23 psi). Plants with egg infestation (100-300 eggs per plant) were placed in a holding room for 5-6 days at 82° F. and 50% RH for egg hatch and crawler stage to develop. Four cotton plants were used for each treatment. Compounds (2 mg) were dissolved in 1 mL of acetone solvent, forming stock solutions of 2000 ppm. The stock solutions were diluted 10× with 0.025% Tween 20 in H2O to obtain a test solution at 200 ppm. A hand-held Devilbiss sprayer was used for spraying a solution to both sides of cotton leaf until runoff. Reference plants (solvent check) were sprayed with the diluent only. Treated plants were held in a holding room for 8-9 days at approximately 82° F. and 50% RH prior to grading. Evaluation was conducted by counting the number of live nymphs per plant under a microscope. Insecticidal activity was measured by using Abbott's correction formula and presented in Table 2 (see col. “BEMITA”): Corrected % Control=100*(X−Y)/X • where X=No. of live nymphs on solvent check plants • Y=No. of live nymphs on treated plants Pesticidally Acceptable Acid Addition Salts, Salt Derivatives, Solvates, Ester Derivatives, Polymorphs, Isotopes and Radionuclides

The subject of assay [2] is Green Peach Aphid (Myzus Persicae). The assay can be described thus: Insecticidal test for green peach aphid in foliar spray assay (col. MYZUPE). The conditions noted are these: for pest or weed control at 200 ppm: Myzus persicae, 72 h, read-out: MYZUPE 200 ppm (Corrected % Control, rating). Format: in vivo. As to the method:
as §1, §2
Insecticidal Test for Green Peach Aphid (Myzus Persicae) in Foliar Spray Assay
Cabbage seedlings grown in 3-inch pots, with 2-3 small (3-5 cm) true leaves, were used as test substrate. The seedlings were infested with 20-50 green peach aphids (wingless adult and nymph) one day prior to chemical application. Four pots with individual seedlings were used for each treatment. Compounds (2 mg) were dissolved in 2 mL of acetone/methanol (1:1) solvent, forming stock solutions of 1000 ppm. The stock solutions were diluted 5× with 0.025% Tween 20 in H2O to obtain a test solution at 200 ppm. A hand-held Devilbiss sprayer was used for spraying a solution to both sides of cabbage leaves until runoff. Reference plants (solvent check) were sprayed with the diluent only. Treated plants were held in a holding room for three days at approximately 25° C. and 40% relative humidity (RH) prior to grading. Evaluation was conducted by counting the number of live aphids per plant under a microscope. Corrected % Control=100*(X−Y)/X • where X=No. of live aphids on solvent check plants • Y=No. of live aphids on treated plants

On to `CSCC(C)C(=O)N(C(=O)OC(C)(C)C)c1sc(-c2cncc(C)c2)nc1C` (stereo not drawn) [Compound 156, [4-methyl-2-(5-methyl-pyridin-3-yl)-thiazol-5-yl]-(2-methyl-3-methylsulfanyl-propionyl)-carbamic acid tert-butyl ester], for which the pest or weed control at 200 ppm is under 80% in assay [1] (sweetpotato whitefly-crawler) and 80 to 100% in assay [2] (green peach aphid).
Turning to `CCN(C(=O)CC[S+](C)[O-])c1sc(-c2cncc(F)c2)nc1F` (stereo not drawn) [Compound 427], the pest or weed control at 200 ppm in assay [1] (Abbott's correction formula) and in assay [2] (Abbott's correction formula) was 80 to 100% each time.
Turning to `Cc1nc(-c2cccnc2)sc1NC(=O)C1=CC(=O)CC(C)(C)O1` [Compound 326], the pest or weed control at 200 ppm in assay [1] (sweetpotato whitefly-crawler) and in assay [2] (green peach aphid) was under 80% throughout.
With `CSC(C)C(C)C(=O)N(C)c1sc(-c2cncc(F)c2)nc1C` (stereo not drawn) [Compound 215], the pest or weed control at 200 ppm in assay [1] (sweetpotato whitefly-crawler) and in assay [2] (green peach aphid) was 80 to 100% in each case.
`CCN(C(=O)C(C)C(C)SC)c1sc(-c2cccnc2)nc1Cl` (stereo not drawn) [Compound 538]: the pest or weed control at 200 ppm in assay [1] (Abbott's correction formula) and in assay [2] (Abbott's correction formula) was 80 to 100% throughout.
On to `CSCC(C)C(=O)N(CC1CC1)c1sc(-c2cccnc2)nc1C` (stereo not drawn) [Compound 468], for which the pest or weed control at 200 ppm in assay [1] (Abbott's correction formula) was under 80%; in assay [2] (Abbott's correction formula), 80 to 100%.
With `CSCC(C)(C)C(=O)N(C)c1sc(-c2cccnc2)nc1C(F)(F)F` [Compound 45], the pest or weed control at 200 ppm was 80 to 100% in assay [1] (sweetpotato whitefly-crawler) and under 80% in assay [2] (green peach aphid).
The matching figures for `Cc1nc(-c2cccnc2)sc1N(C)C(=O)C1CCSC1` (stereo not drawn) [Compound 206]: 80 to 100% and 80 to 100%.
Regarding `CCN(C(=O)Cc1ccc(Cl)nc1)c1sc(-c2cccnc2)nc1Cl` [Compound 561], the pest or weed control at 200 ppm in assay [1] (Abbott's correction formula) is under 80%; in assay [2] (Abbott's correction formula) it was 80 to 100%.
For the molecule `CC(C[S+](C)[O-])C(=O)N(C)c1sc(-c2cccnc2)nc1C(F)(F)F` (stereo not drawn) [Compound 89], the pest or weed control at 200 ppm in assay [1] (sweetpotato whitefly-crawler) is 80 to 100%; in assay [2] (green peach aphid), under 80%.
With `CN(C(=O)C(F)(F)F)c1cnc(-c2cncc(F)c2)s1` [Compound 1, 2,2,2-trifluoro-N-[2-(5-fluoropyridin-3-yl)-thiazol-5-yl]-N-methyl-acetamide], the results for the pest or weed control at 200 ppm in assay [1] (sweetpotato whitefly-crawler) and in assay [2] (green peach aphid) were 80 to 100% and under 80%, respectively.
With `COCCOC(=O)N(C)c1sc(-c2cccnc2)nc1C` [Compound 485], the pest or weed control at 200 ppm in assay [1] (Abbott's correction formula) and in assay [2] (Abbott's correction formula) was 80 to 100% each time.
In the case of `CC/N=C(\SCC)N(C)c1sc(-c2cccnc2)nc1C` [Compound 471, 2,3-diethyl-1-methyl-1-(4-methyl-2-pyridin-3-yl-thiazol-5-yl)-isothiourea], the results for the pest or weed control at 200 ppm in assay [1] (Abbott's correction formula) and in assay [2] (Abbott's correction formula) were under 80% and 80 to 100%, respectively.
As for `Cc1nc(-c2cccnc2)sc1N(C)C(=O)C(CCCCNC(=O)OCc1ccccc1)NC(=O)OC(C)(C)C` (stereo not drawn) [Compound 291], the pest or weed control at 200 ppm in assay [1] (sweetpotato whitefly-crawler) and in assay [2] (green peach aphid) was under 80% throughout.
Consider `CN(C(=O)C1CCSC1)c1sc(-c2cccnc2)nc1Cl` (stereo not drawn) [Compound 517], for which the figures for the pest or weed control at 200 ppm in assay [1] (Abbott's correction formula) and in assay [2] (Abbott's correction formula) were under 80% and 80 to 100%, respectively.
As to `CSC(C)C(=O)N(C)c1sc(-c2cccnc2)nc1C` (stereo not drawn) [Compound 360], the results for the pest or weed control at 200 ppm in assay [1] (sweetpotato whitefly-crawler) and in assay [2] (green peach aphid) were under 80% and 80 to 100%, respectively.
In the case of `CCN(C(=O)C(C)C)c1sc(-c2cccnc2)nc1Br` [Compound 457], the pest or weed control at 200 ppm in assay [1] (Abbott's correction formula) and in assay [2] (Abbott's correction formula) was 80 to 100% each time.
For `C=Cc1nc(-c2cncc(F)c2)sc1N(C)C(=O)OC(C)(C)C` [Compound 363, [2-(5-fluoro-pyridin-3-yl)-4-vinyl-thiazol-5-yl]-methyl-carbamic acid-tert-butyl ester], the pest or weed control at 200 ppm in assay [1] (sweetpotato whitefly-crawler) is 80 to 100%; in assay [2] (green peach aphid), under 80%.
For `CCN(C(=O)CC(C)[S+](C)[O-])c1sc(-c2cccnc2)nc1Cl` (stereo not drawn) [Compound 524], the pest or weed control at 200 ppm in assay [1] (Abbott's correction formula) and in assay [2] (Abbott's correction formula) was 80 to 100% throughout.
In the case of `CCOC(=O)N(C)c1cnc(-c2cncc(F)c2)s1` [Compound 76, [2-(5-Fluoropyridin-3-yl)-thiazol-5-yl]-methyl-carbamic acid ethyl ester], the pest or weed control at 200 ppm in assay [1] (sweetpotato whitefly-crawler) and in assay [2] (green peach aphid) was 80 to 100% in each case.
Turning to `Cc1nc(-c2cccnc2)sc1N(C)C(=O)c1ccc([S+](C)[O-])cc1` (stereo not drawn) [Compound 402], in assay [1] (sweetpotato whitefly-crawler), the “BEMITA 200 ppm (Corrected % Control, rating)” value is given as “A (80-100)”. Besides, in assay [2] (green peach aphid), the “MYZUPE 200 ppm (Corrected % Control, rating)” value is listed as “A (80-100)”.
As for `CC(C)C(=O)N(C)c1sc(-c2cccnc2)nc1Cl` [Compound 231], the pest or weed control at 200 ppm in assay [1] (sweetpotato whitefly-crawler) and in assay [2] (green peach aphid) was 80 to 100% in each case.
Take `CC(=O)c1ccc(C(=O)N(C)c2sc(-c3cccnc3)nc2Cl)s1` [Compound 351]: the pest or weed control at 200 ppm in assay [1] (sweetpotato whitefly-crawler) and in assay [2] (green peach aphid) was under 80% throughout.
In the case of `CC(C)(C)OC(=O)Nc1sc(-c2cccnc2)nc1C(F)(F)F` [Compound 7, (2-pyridin-3-yl-4-trifluoromethyl-thiazol-5-yl)-carbamic acid tert-butyl ester], the pest or weed control at 200 ppm in assay [1] (sweetpotato whitefly-crawler) and in assay [2] (green peach aphid) was under 80% throughout.
Turning to `CSCCC(=O)N(C)c1sc(-c2cncc(F)c2)nc1Cl` [Compound 266], the pest or weed control at 200 ppm in assay [1] (sweetpotato whitefly-crawler) and in assay [2] (green peach aphid) was 80 to 100% throughout.
For `Cc1nc(-c2cncc(F)c2)sc1N(C)C(=O)CC(C)[S+](C)[O-]` (stereo not drawn) [Compound 285], the pest or weed control at 200 ppm in assay [1] (sweetpotato whitefly-crawler) and in assay [2] (green peach aphid) was 80 to 100% each time.
With `Cc1nc(-c2cccnc2)sc1N(C)C(=O)[C@H](Cc1ccccc1)NC(=O)OC(C)(C)C` [Compound 280], the pest or weed control at 200 ppm in assay [1] (sweetpotato whitefly-crawler) and in assay [2] (green peach aphid) was under 80% in each case.
Take `CSCCCC(=O)N(C)c1sc(-c2cccnc2)nc1C` [Compound 368]: the pest or weed control at 200 ppm in assay [1] (sweetpotato whitefly-crawler) and in assay [2] (green peach aphid) was 80 to 100% each time.
Take `CN(C(=O)OC(C)(C)C)c1cnc(-c2ccc(Cl)nc2)s1` [Compound 16, [2-(6-chloropyridin-3-yl)-thiazol-5-yl]-methyl-carbamic acid tert-butyl ester]: the figures for the pest or weed control at 200 ppm in assay [1] (sweetpotato whitefly-crawler) and in assay [2] (green peach aphid) were 80 to 100% and under 80%, respectively.
Turning to `CCN(C(=O)C1C(C=C(Cl)Cl)C1(C)C)c1sc(-c2cccnc2)nc1Cl` (stereo not drawn) [Compound 552], the pest or weed control at 200 ppm in assay [1] (Abbott's correction formula) was under 80%; in assay [2] (Abbott's correction formula) it was 80 to 100%.
In the same order, the values of `COCC(=O)N1CCCC(C(=O)N(C)c2sc(-c3cncc(F)c3)nc2C)C1` (stereo not drawn) [Compound 583] are 80 to 100% and 80 to 100%.
In the same order, the values of `CSCCC(=O)N(C)c1sc(-c2cccnc2)nc1Br` [Compound 498] are 80 to 100% and 80 to 100%.
With `CCc1nc(-c2cccnc2)sc1N(C)C(=O)C(C)(C)CSC` [Compound 49], the values for the pest or weed control at 200 ppm in assay [1] (sweetpotato whitefly-crawler) and in assay [2] (green peach aphid) were 80 to 100% and under 80%, respectively.
Turning to `CN(C(=O)CCS(C)(=O)=O)c1sc(-c2cncc(F)c2)nc1Cl` [Compound 273], the pest or weed control at 200 ppm in assay [1] (sweetpotato whitefly-crawler) and in assay [2] (green peach aphid) was 80 to 100% throughout.
In the case of `CCN(C(=O)c1ccc(C(C)=O)s1)c1sc(-c2cccnc2)nc1Cl` [Compound 543], the pest or weed control at 200 ppm in assay [1] (Abbott's correction formula) and in assay [2] (Abbott's correction formula) was 80 to 100% each time.
With `COC(=O)/C=C/CN(C(=O)C(C)CSC)c1sc(-c2cccnc2)nc1C` (stereo not drawn) [Compound 464], the pest or weed control at 200 ppm in assay [1] (Abbott's correction formula) was under 80%; in assay [2] (Abbott's correction formula), 80 to 100%.
As to `CN(C(=O)CC[S+](C)[O-])c1sc(-c2cccnc2)nc1Cl` (stereo not drawn) [Compound 174], the pest or weed control at 200 ppm in assay [1] (sweetpotato whitefly-crawler) and in assay [2] (green peach aphid) was 80 to 100% in each case.
With `Cc1nc(-c2cccnc2)sc1NC(=O)CCC1CC1` [Compound 416], the pest or weed control at 200 ppm in assay [1] (sweetpotato whitefly-crawler) and in assay [2] (green peach aphid) was 80 to 100% in each case.
Regarding `Cc1nc(C)n(CC(C)C(=O)N(C)c2sc(-c3cccnc3)nc2Cl)n1` (stereo not drawn) [Compound 333], the “BEMITA 200 ppm (Corrected % Control, rating)” value in assay [1] (sweetpotato whitefly-crawler) is given as “B (Less than 80)”. Also, in assay [2] (green peach aphid), the “MYZUPE 200 ppm (Corrected % Control, rating)” value is reported as “A (80-100)”.
